Measurements taken from paper PMC9322122, “Development of (4-Phenylamino)quinazoline Alkylthiourea Derivatives as Novel NF-κB Inhibitors” (Pharmaceuticals, 2022).

Key:
phospho-NF-κB p65 (S468) = assay: Western blot phospho-NF-κB p65 (S468) in dTHP-1 cells; type: cell-based, human; details: 7.5 µM; LPS-stimulated dTHP-1 cells
Protocol: Cells were lysed in the commercial RIPA Buffer (Thermo Fisher Scientific, Waltham, MA, USA) and then centrifuged at 14,000× g for 20 min. […] Antibodies used in this study were phospho-NF-κB p65 (S468; catalog no. 3039), phospho-NF-κB p65 (S536; catalog no. 3033), phospho-IKKα/β (catalog no. 2697), and IκB (catalog no. 9242) from Cell Signaling Technology (Beverly, MA, USA); GAPDH from ABclonal (catalog no. A10868; Woburn, MA, USA). The labeled signals were determined using an enhanced chemiluminescence system (UVP, Upland, CA, USA). The experiments were performed at least two times in triplicate, providing basically the same results.
The dTHP−1 cells were incubated with DMSO (0.1%), 19 (7.5 µM), or CAPE (10 µM) in medium for 3 h and then stimulated with or without LPS (0.1 µg/mL) for another 30 min. (A) Nuclear translocation of NF-κB p65 (green) was determined by immunofluorescent microscopy. Hoechst (blue) was used for nuclei staining. (B) The nuclear NF-κB p65-positive cells were quantified. (C) The levels of phospho-NF-κB p65 (S468), IκB, and GAPDH were determined by Western blot. (D) The normalized phospho-NF-κB p65 (S468) and IκB levels were quantified. All data are expressed as mean ± SEM (n = 3); ** p < 0.01 and *** p < 0.001 compared with the DMSO + LPS group.

For `S=C(Nc1ccc2ncnc(Nc3cccc(Cl)c3)c2c1)NC1CCCC1` [Compound 19, 1-(4-((3-Chlorophenyl)amino)quinazolin-6-yl)-3-cyclopentylthiourea], the melting point was 229.1 to 231.6 °C and the “Phosphorylation of p65-Ser468” value (phospho-NF-κB p65 (S468)) was “significantly diminished phosphorylation of p65-Ser468”.
